The values that follow are results of earlier work, collected in patent US8273880B2, “Pyrazole compounds with inhibitory activity against ROS kinase” (Korea Institute of Science and Technology, priority 2009, dated 2012).

pIC50: −log10 of the molar value.

The data set has as its target ROS kinase (Homo sapiens, UniProt P08922). Further details: literature Reaction Biology Corporation. Conditions: Data from Reaction Biology corporation (website); read-out: Inhibitory Activity against ROS (IC50); cited from earlier work.

Sequence of ROS kinase (P08922 28-2347): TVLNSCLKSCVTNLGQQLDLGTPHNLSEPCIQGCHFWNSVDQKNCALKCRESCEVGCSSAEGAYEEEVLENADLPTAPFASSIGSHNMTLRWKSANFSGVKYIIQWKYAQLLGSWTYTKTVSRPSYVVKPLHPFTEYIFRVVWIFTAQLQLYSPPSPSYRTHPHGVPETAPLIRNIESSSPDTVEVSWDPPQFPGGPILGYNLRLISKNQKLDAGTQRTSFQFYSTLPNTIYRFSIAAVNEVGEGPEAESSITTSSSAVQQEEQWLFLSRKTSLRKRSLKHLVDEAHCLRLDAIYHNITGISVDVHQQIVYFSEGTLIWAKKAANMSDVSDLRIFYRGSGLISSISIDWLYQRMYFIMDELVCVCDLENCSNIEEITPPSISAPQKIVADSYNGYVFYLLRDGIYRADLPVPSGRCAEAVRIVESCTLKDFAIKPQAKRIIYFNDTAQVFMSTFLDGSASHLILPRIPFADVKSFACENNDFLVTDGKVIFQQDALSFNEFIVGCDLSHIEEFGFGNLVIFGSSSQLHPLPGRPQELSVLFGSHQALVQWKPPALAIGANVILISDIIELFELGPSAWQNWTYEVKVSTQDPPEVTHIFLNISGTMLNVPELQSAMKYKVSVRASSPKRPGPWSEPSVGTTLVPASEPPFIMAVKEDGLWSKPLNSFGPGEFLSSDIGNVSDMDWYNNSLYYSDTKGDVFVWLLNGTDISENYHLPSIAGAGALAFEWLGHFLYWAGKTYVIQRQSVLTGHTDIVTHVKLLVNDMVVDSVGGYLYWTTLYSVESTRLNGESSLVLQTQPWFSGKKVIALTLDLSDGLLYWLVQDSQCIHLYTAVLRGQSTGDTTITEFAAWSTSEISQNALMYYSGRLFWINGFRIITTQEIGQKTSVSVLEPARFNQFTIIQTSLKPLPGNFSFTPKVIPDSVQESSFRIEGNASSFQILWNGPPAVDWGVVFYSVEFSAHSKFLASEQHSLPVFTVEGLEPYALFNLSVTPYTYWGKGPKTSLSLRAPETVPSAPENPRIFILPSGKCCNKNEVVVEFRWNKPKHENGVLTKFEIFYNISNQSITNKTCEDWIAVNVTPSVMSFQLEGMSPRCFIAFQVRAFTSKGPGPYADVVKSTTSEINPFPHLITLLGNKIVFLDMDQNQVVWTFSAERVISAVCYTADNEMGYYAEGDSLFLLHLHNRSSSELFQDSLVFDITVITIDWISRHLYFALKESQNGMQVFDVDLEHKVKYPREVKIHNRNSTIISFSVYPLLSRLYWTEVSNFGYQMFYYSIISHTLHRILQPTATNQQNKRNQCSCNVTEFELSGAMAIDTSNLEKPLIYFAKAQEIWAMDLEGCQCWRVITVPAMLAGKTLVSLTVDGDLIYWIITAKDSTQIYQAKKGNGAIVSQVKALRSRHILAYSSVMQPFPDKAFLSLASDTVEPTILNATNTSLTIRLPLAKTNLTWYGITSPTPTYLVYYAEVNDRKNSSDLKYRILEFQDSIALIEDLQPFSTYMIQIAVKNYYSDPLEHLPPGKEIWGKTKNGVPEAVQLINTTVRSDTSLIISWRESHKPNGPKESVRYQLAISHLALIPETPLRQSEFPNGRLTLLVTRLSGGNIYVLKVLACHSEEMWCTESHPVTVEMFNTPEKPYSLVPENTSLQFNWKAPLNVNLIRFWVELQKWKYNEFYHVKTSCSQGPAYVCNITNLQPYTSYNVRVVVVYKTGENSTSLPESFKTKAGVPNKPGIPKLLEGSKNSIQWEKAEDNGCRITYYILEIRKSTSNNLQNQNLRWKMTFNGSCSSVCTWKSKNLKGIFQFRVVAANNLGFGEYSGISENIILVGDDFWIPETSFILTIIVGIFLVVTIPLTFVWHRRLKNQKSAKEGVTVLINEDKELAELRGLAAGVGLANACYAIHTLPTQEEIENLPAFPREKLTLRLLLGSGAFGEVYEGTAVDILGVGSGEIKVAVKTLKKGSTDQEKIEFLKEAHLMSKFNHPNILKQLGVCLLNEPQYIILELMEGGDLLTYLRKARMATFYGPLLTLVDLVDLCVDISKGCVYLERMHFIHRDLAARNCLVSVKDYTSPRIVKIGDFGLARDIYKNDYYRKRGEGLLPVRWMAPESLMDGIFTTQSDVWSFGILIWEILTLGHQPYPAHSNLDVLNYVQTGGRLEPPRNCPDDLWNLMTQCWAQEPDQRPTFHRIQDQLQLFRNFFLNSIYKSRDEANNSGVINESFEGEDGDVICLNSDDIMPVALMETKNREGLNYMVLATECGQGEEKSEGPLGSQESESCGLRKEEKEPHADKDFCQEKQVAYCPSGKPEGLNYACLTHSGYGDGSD

What is called pIC50 is −log10 of the IC50, conventionally taken in molar units. Turning to `COc1cc2ncnc(Nc3cccc(Cl)c3)c2cc1OC` [AG1478], the pIC50 was 4.87.
Consider PDGFR I-III, for which the pIC50 was 4.32.
